Experimental data from US11879137B2, “Treatment of type 1 diabetes and autoimmune diseases or disorders” (THE CHILDREN'S MEDICAL CENTER CORPORATION, priority 2017, dated 2024).

Tested on: CD34+ cells
Experiment: qRT-PCR of PD-L1, CXCR4 and IDO-1 in prostaglandin-modulated CD34+ cells
Assay type: cell-based, human
Details: for PD-L1 mRNA expression by RT-PCR: CD34+ cells upon modulation
Experimental: qRT-PCR. RNA was extracted from CD34+ cells using Direct-Zol™ RNA Kits (Zymo, Irvine, CA, USA) and Trizol Reagent (Invitrogen Carlsbad, CA), RNA quality was assessed by Multiskan™ GO Microplate spectrophotometer and the ratios of absorbance at 260 nm and 280 nm were assessed for all the samples. Only samples with RNA ratios within 1.9 were included in the present study. cDNA synthesis was made from purified total RNA by reverse transcription using High capacity cDNA Reverse Transcription RETROscript® Kit (Thermo Fisher Scientific, Waltham, MA, USA) followed by a pre-amplification using Taqman PreAmp Kit (Applied Biosystems) according to the manufacturer's instructions. qRT-PCR analysis was performed using TaqMan assays (Life Technologies, Grand Island, NY) containing PCR primers and TaqMan probes according to the manufacturer's instructions. Normalized expression values were determined using the ΔCt method. Quantitative reverse transcriptase polymerase chain reaction (qRT-PCR) data were normalized for the expression of GAPDH. qRT-PCR reactions were performed in triplicate in a 96-well format using an Applied Biosystems 7900HT fast real-time PCR instrument. Relative expression was calculated using the comparative threshold cycle method as previously described (23, 24). For two-group comparisons, a Student's t test was employed. Reported below are the main characteristics of the primers used: […]
Prostaglandin library screening. PGE2 has been described as a small molecule known to enhance the homing and engraftment of HSPCs. It was therefore sought to screen all known types of prostaglandins using the Prostaglandin Screening Library II, which contains 64 small molecules. Each small molecule contained in the library was first screened for its capacity to upregulate PD-L1 in human CD34+ cells isolated from T1D patients (FIG. 17A-17B). CD34+ cells isolated from T1D patients were cultured in StemSpan SFEMII and pulsed with each PG (prostaglandin) small molecule contained in the aforementioned library at a concentration of 10 μM at 24 and 48h. Using FACS analysis, the MFI (mean fluorescence intensity) of PD-L1 expression was calculated following treatment with each small molecule used to modulate CD34+ cells as compared to untreated/unmodulated CD34+ cells (FIG. 17B). A heat map was generated depicting the degree to which each PG small molecule affected PD-L1 expression on CD34+ cells (FIG. 17B), thus allowing for the evaluation of PG candidates. Based on its ability to modulate PD-L1 expression, PGE2 was selected as a candidate for further study; in addition, PGE2 has been described in the literature and has been tested in clinical trials as a potential therapy for enhancing HSPC engraftment following cord blood transplantation (21). Isolated CD34+ cells from healthy control patients (CTRL) and from T1D patients were cultured in StemSpan SFEMII and pulsed with 10 μM of PGE2 at 24 hours and 48 hours. […] It was therefore sought to perform a migration assay in order to assess the homing properties of PGE2-treated CD34+ cells (FIG. 17F).

Structure (SMILES) | PD-L1 mRNA expression by RT-PCR | IDO-1 expression (mRNA) (post-pharmacologic modulation) | increase of CXCR4 gene expression by RT-PCR (vs untreated CD34+ cells) [fold]
CCCCC[C@H](O)/C=C/[C@H]1[C@H](O)CC(=O)[C@@H]1C/C=C\CCCC(=O)O [PGE2, prostaglandin E2] | slight increase | remained unchanged | 2
CCCCC(C)(C)[C@H](O)/C=C/[C@H]1[C@H](O)CC(=O)[C@@H]1C/C=C\CCCC(=O)O [16,16-dimethyl PGE2] | marked upregulation |  | 
